Reference: patent publication US20240277677A1, “SALT FORM AND CRYSTAL FORM THEREOF OF SULFONYLUREA RING SUBSTITUTED COMPOUND” (priority 2022, published 2024)
Converted amounts (≈) assume the structure as drawn.

What was measured:
[1] = system: Escherichia coli ATCC 25922; assay: Antibacterial activity MIC, micro-liquid dilution method (CLSI); format: cell-based; conditions: ATCC25922, E. coli ATCC 25922
Source text: (§1) Three strains of Klebsiella pneumonia, ATCC BAA-205 (TEM-1/SHV-1/SHV-12), ATCC BAA-1705 (KPC-2), ATCC BAA-2470 (NDM-1), Enterobacter cloacae ATCC BAA-1143 (AmpC), two strains of Escherichia coli ATCC BAA-2523(OXA-48), ATCC 25922 were used to determine the minimum inhibitory concentration (MIC) of each of the compounds by a micro-liquid dilution method according to the Institute of Clinical and Laboratory Standard (CLSI) requirements. A 2-fold serial dilution of the compound (final concentration ranging from 0.125 μg/ml to 128 µg/ml) was added to a round-bottom 96-well plate (Catalog #3788, Corning), fresh monoclonal bacteria were selected from an overnight cultured Mueller Hinton II Agar medium plate (MHA, Cat. No. 211438, BD BBL™) and suspended in sterile saline, the concentration was adjusted to 1×10^8 CFU/mL, and then the solution was diluted by using a cation-adjusted Hinton Mueller culture medium Cation-Adjusted Mueller Hinton II Broth (MHB, Catalog #212332, BD BBL™) to a concentration of 5×10^5 CFU/ml, and 100 μl of the solution was added to a round bottom 96-well plate containing the drugs. The plate was placed upside down at 37° C. and the MIC value was read after 20-24 h of incubation, and the lowest drug concentration that inhibited the growth of bacteria was set as MIC. For the results see Table 1. Colony-Forming Units (CFU) refers to the total number of bacterial colonies per unit volume.

[2] = system: Klebsiella pneumonia ATCC BAA-205 (TEM-1/SHV-1/SHV-12); assay: as above; format: cell-based; conditions: Klebsiella pneumoniae, ATCCBAA205
Source text: as §1

[3] = system: Enterobacter cloacae ATCC BAA-1143 (AmpC); assay: as above; format: cell-based; conditions: ATCCBAA1143, E. cloacae ATCC BAA-1143 Class C (AmpC)
Source text: as §1

[4] = system: Klebsiella pneumonia ATCC BAA-2470 (NDM-1); assay: as above; format: cell-based; conditions: Klebsiella pneumoniae, ATCCBAA2470; K. pneumoniae ATCC BAA-2470 Class B (NDM-1)
Source text: as §1

[5] = system: Klebsiella pneumonia ATCC BAA-1705 (KPC-2); assay: as above; format: cell-based; conditions: Klebsiella pneumoniae, ATCCBAA1705; K. pneumoniae ATCC BAA-1705 Class A (KPC-2)
Source text: as §1

[6] = Stability test of the crystal form A in different solvents (suspension 2 days, crystal form test); format: physicochemical; conditions: for Result (crystal form): 20~30° C., 2 days
[7] = Exploration of other crystal forms by changing crystallization conditions; format: physicochemical
Source text: Purpose: Explore obtaining other crystal forms by changing crystallization conditions.

[8] = system: Klebsiella pneumoniae ATCC-BAA 2470 (NDM+); assay: Drug efficacy in thigh muscle infection model in vivo (immunodeficient CD-1 female mice); conditions: for Average CFU of Mouse (bacterial load of thigh muscle tissue): end point 26 h
Description: 78 CD-1 female mice were divided into 26 cages, 3 mice per cage. The day of infection is counted as the 0 day.
150 mg/kg immunosuppressant cyclophosphamide was intraperitoneally injected on Day-4, and 100 mg/kg immunosuppressant cyclophosphamide was intraperitoneally injected again on Day-1 to obtain immunodeficient mice.
The strain Klebsiella pneumoniae ATCC-BAA 2470 (NDM+) was recovered on an MHA plate on Day-1. The recovered colonies were picked and dissolved in sterile saline to prepare a bacterial solution with a concentration of 5.95E+07 CFU/mL for use in mouse thigh muscle infection. The infection starting time was counted as 0 h, and 100μL of bacterial solution is injected into the thigh muscle of each mouse at 0 h, that is, the inoculation amount is 5.95E+06 CFU/mouse. 2 h after infection, the drugs were administered according to the experimental scheme. […] The mice in the 1st to 4th cage were administered at a total daily dose of 1600 mg/kg, the mice in the 5th to 8th cage were administered at a total daily dose of 480 mg/kg, the mice in the 9th to 12th cage were administered at a total daily dose of 160 mg/kg, the mice in the 13th to 16th cage were administered at a total daily dose of 48 mg/kg, the mice in the 17th to 20th cage were administered at a total daily dose of 16 mg/kg, the mice in the 21th to 24th cage were administered at a total daily dose of 4.8 mg/kg, and each dosage group was administered separately in four different dosage dividing manners, which were q3 h, q6 h, q12 h and q24 h separately. • (3) 26 h after infection: The endpoint of the experiment was at 26 h after infection, the thigh muscle tissue of the mice of the 1st to 26th cage was taken and placed in 10 mL sterile saline, the tissue was homogenized by a homogenizer, and the homogenate was dotted on a plate with gradient dilution, two duplications for each mouse. The bacterial load of the thigh muscle tissue of the mice was counted, and for the experimental results see Table 15.

Q: What does the source list for `NC[C@@H]1CN(C[C@@H]2[C@H](NC(=O)/C(=N\OC3(C(=O)O)CC3)c3csc(N)n3)C(=O)N2S(=O)O)S(=O)(=O)N1` (stereo in doubt)?
A: MIC [1]: 0.25 µg/mL (≈ 0.441 µM); MIC [2]: 0.5 µg/mL (≈ 0.882 µM); MIC [3]: 0.5 µg/mL (≈ 0.882 µM); MIC [4]: 0.25 µg/mL (≈ 0.441 µM); MIC [5]: 1 µg/mL (≈ 1.76 µM); Appearance (2 days) ([6]; Acetonitrile): Suspension; Appearance (2 days) ([6]; Acetonitrile-water(20:1)): Suspension; Appearance (2 days) ([6]; Ethanol): Suspension; Appearance (2 days) ([6]; Ethanol-water(20:1)): Suspension; Appearance (2 days) ([6]; Ethyl acetate): Suspension; Appearance (2 days) ([6]; Isopropanol): Suspension; Appearance (2 days) ([6]; Isopropanol-water(20:1)): Suspension; Appearance (2 days) ([6]; Tetrahydrofuran): Suspension; Result (crystal form) ([6]; suspended in Acetonitrile): Crystal form A; Result (crystal form) ([6]; suspended in Acetonitrile-water(20:1)): Crystal form A; Result (crystal form) ([6]; suspended in Ethanol): Crystal form A; Result (crystal form) ([6]; suspended in Ethanol-water(20:1)): Crystal form A; Result (crystal form) ([6]; suspended in Ethyl acetate): Crystal form A; Result (crystal form) ([6]; suspended in Isopropanol): Crystal form A; Result (crystal form) ([6]; suspended in Isopropanol-water(20:1)): Crystal form A; Result (crystal form) ([6]; suspended in Tetrahydrofuran): Crystal form A; Stability in solvents (conclusion) ([6]; variety of solvents): stable; Result of crystallization (exploration of other crystal forms) ([7]; EtOH:H2O = 10:1, first dissolved and then cooled down): No crystal was obtained; Result of crystallization (exploration of other crystal forms) ([7]; EtOH:H2O = 20:1, first dissolved and then cooled down): No crystal was obtained; Result of crystallization (exploration of other crystal forms) ([7]; IPA:H2O = 10:1, first dissolved and then cooled down): No crystal was obtained; Result of crystallization (exploration of other crystal forms) ([7]; IPA:H2O = 20:1, first dissolved and then cooled down): No crystal was obtained; Result of crystallization (exploration of other crystal forms) ([7]; THF:H2O = 10:1, first dissolved at 40° C., cooled to 0~5° C.): No crystal was obtained; Result of crystallization (exploration of other crystal forms) ([7]; acetone:H2O = 20:1, first dissolved and then cooled down): No crystal was obtained; Other crystal forms obtained (conclusion) ([7]; dissolved in different aqueous systems and then crystallized): no other crystal forms were obtained; Average CFU of Mouse (bacterial load of thigh muscle tissue) ([8]; group 1: total daily dose 1600 mg/kg, single dose 60 mg/kg, q3h s.c.): 2.18E+06 CFU/Mouse; Average CFU of Mouse (bacterial load of thigh muscle tissue) ([8]; group 2: total daily dose 1600 mg/kg, single dose 400 mg/kg, q6h s.c.): 2.45E+06 CFU/Mouse; Average CFU of Mouse (bacterial load of thigh muscle tissue) ([8]; group 3: total daily dose 1600 mg/kg, single dose 800 mg/kg, q12h s.c.): 3.80E+08 CFU/Mouse; Average CFU of Mouse (bacterial load of thigh muscle tissue) ([8]; group 4: total daily dose 1600 mg/kg, single dose 1600 mg/kg, q24h s.c.): 9.02E+09 CFU/Mouse; Average CFU of Mouse (bacterial load of thigh muscle tissue) ([8]; group 5: total daily dose 480 mg/kg, single dose 60 mg/kg, q3h s.c.): 2.20E+06 CFU/Mouse; Average CFU of Mouse (bacterial load of thigh muscle tissue) ([8]; group 6: total daily dose 480 mg/kg, single dose 120 mg/kg, q6h s.c.): 2.18E+08 CFU/Mouse; Average CFU of Mouse (bacterial load of thigh muscle tissue) ([8]; group 7: total daily dose 480 mg/kg, single dose 240 mg/kg, q12h s.c.): 2.88E+09 CFU/Mouse; Average CFU of Mouse (bacterial load of thigh muscle tissue) ([8]; group 8: total daily dose 480 mg/kg, single dose 480 mg/kg, q24h s.c.): 8.73E+09 CFU/Mouse; Average CFU of Mouse (bacterial load of thigh muscle tissue) ([8]; group 9: total daily dose 160 mg/kg, single dose 20 mg/kg, q3h s.c.): 2.10E+06 CFU/Mouse; Average CFU of Mouse (bacterial load of thigh muscle tissue) ([8]; group 10: total daily dose 160 mg/kg, single dose 40 mg/kg, q6h s.c.): 4.67E+08 CFU/Mouse; Average CFU of Mouse (bacterial load of thigh muscle tissue) ([8]; group 11: total daily dose 160 mg/kg, single dose 80 mg/kg, q12h s.c.): 7.88E+09 CFU/Mouse; Average CFU of Mouse (bacterial load of thigh muscle tissue) ([8]; group 12: total daily dose 160 mg/kg, single dose 160 mg/kg, q24h s.c.): 1.22E+10 CFU/Mouse; Average CFU of Mouse (bacterial load of thigh muscle tissue) ([8]; group 13: total daily dose 48 mg/kg, single dose 6 mg/kg, q3h s.c.): 4.07E+06 CFU/Mouse; Average CFU of Mouse (bacterial load of thigh muscle tissue) ([8]; group 14: total daily dose 48 mg/kg, single dose 12 mg/kg, q6h s.c.): 1.57E+09 CFU/Mouse; Average CFU of Mouse (bacterial load of thigh muscle tissue) ([8]; group 15: total daily dose 48 mg/kg, single dose 24 mg/kg, q12h s.c.): 8.70E+09 CFU/Mouse; Average CFU of Mouse (bacterial load of thigh muscle tissue) ([8]; group 16: total daily dose 48 mg/kg, single dose 48 mg/kg, q24h s.c.): 1.32E+10 CFU/Mouse; Average CFU of Mouse (bacterial load of thigh muscle tissue) ([8]; group 17: total daily dose 16 mg/kg, single dose 2 mg/kg, q3h s.c.): 7.77E+07 CFU/Mouse; Average CFU of Mouse (bacterial load of thigh muscle tissue) ([8]; group 18: total daily dose 16 mg/kg, single dose 4 mg/kg, q6h s.c.): 2.92E+09 CFU/Mouse; Average CFU of Mouse (bacterial load of thigh muscle tissue) ([8]; group 19: total daily dose 16 mg/kg, single dose 8 mg/kg, q12h s.c.): 6.93E+09 CFU/Mouse; Average CFU of Mouse (bacterial load of thigh muscle tissue) ([8]; group 20: total daily dose 16 mg/kg, single dose 16 mg/kg, q24h s.c.): 1.44E+10 CFU/Mouse; Average CFU of Mouse (bacterial load of thigh muscle tissue) ([8]; group 21: total daily dose 4.8 mg/kg, single dose 0.6 mg/kg, q3h s.c.): 7.22E+08 CFU/Mouse; Average CFU of Mouse (bacterial load of thigh muscle tissue) ([8]; group 22: total daily dose 4.8 mg/kg, single dose 1.2 mg/kg, q6h s.c.): 4.55E+09 CFU/Mouse; Average CFU of Mouse (bacterial load of thigh muscle tissue) ([8]; group 23: total daily dose 4.8 mg/kg, single dose 2.4 mg/kg, q12h s.c.): 7.60E+09 CFU/Mouse; Average CFU of Mouse (bacterial load of thigh muscle tissue) ([8]; group 24: total daily dose 4.8 mg/kg, single dose 4.8 mg/kg, q24h s.c.): 1.27E+10 CFU/Mouse; Antibacterial effect in vivo (conclusion) ([8]; mouse thigh muscle infection, subcutaneous, 26 h after infection): significant antibacterial effect in vivo; Effect of shortening the administration interval (conclusion) ([8]; same daily dose, q3 h, q6 h, q12 h, q24 h): significantly improve the efficacy in vivo; Dose-effect relationship (conclusion) ([8]; total daily dose 4.8 to 1600 mg/kg): significant
